Results reported in paper PMC4858680, “A platinum-based hybrid drug design approach to circumvent acquired resistance to molecular targeted tyrosine kinase inhibitors” (Scientific Reports, 2016).
Residue numbers refer to the chain shown, from its start.

Assays:
ABCG2 (MDCKII–ABCG2) = biological target: T1, ABCG2 (MDCKII–ABCG2) (Homo sapiens, UniProt Q9UNQ0); assay: Bidirectional drug transport assay; assay type: in vitro ADME; conditions: 10 μM, mean of three experiments
T1 construct: expressed in transfected cells; host or cells: MDCKII-ABCG2
T1 sequence (Q9UNQ0 whole entry, species assumed): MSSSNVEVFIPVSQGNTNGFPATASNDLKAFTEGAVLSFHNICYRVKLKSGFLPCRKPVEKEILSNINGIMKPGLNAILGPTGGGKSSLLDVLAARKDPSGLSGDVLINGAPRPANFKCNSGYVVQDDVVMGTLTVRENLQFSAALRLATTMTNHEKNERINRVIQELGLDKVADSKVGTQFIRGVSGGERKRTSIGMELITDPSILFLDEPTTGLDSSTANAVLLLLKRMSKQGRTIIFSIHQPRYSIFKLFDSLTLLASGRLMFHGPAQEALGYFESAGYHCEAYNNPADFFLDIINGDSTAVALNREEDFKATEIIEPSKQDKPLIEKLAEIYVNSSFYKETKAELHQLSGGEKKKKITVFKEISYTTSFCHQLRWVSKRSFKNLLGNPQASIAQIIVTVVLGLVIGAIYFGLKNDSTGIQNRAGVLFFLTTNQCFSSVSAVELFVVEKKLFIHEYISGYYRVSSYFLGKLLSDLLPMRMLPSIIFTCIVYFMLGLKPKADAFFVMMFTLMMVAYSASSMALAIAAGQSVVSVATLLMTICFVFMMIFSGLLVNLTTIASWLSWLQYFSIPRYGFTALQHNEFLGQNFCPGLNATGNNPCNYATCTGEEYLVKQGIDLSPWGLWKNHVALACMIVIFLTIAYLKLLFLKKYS

ABL1-nonphosphorylated = ABL1-nonphosphorylated (Homo sapiens, UniProt P00519); conditions: 10 μM
CSF1R = CSF1R (Homo sapiens, UniProt P07333); conditions: 10 μM
Sequence of CSF1R (P07333 20-972): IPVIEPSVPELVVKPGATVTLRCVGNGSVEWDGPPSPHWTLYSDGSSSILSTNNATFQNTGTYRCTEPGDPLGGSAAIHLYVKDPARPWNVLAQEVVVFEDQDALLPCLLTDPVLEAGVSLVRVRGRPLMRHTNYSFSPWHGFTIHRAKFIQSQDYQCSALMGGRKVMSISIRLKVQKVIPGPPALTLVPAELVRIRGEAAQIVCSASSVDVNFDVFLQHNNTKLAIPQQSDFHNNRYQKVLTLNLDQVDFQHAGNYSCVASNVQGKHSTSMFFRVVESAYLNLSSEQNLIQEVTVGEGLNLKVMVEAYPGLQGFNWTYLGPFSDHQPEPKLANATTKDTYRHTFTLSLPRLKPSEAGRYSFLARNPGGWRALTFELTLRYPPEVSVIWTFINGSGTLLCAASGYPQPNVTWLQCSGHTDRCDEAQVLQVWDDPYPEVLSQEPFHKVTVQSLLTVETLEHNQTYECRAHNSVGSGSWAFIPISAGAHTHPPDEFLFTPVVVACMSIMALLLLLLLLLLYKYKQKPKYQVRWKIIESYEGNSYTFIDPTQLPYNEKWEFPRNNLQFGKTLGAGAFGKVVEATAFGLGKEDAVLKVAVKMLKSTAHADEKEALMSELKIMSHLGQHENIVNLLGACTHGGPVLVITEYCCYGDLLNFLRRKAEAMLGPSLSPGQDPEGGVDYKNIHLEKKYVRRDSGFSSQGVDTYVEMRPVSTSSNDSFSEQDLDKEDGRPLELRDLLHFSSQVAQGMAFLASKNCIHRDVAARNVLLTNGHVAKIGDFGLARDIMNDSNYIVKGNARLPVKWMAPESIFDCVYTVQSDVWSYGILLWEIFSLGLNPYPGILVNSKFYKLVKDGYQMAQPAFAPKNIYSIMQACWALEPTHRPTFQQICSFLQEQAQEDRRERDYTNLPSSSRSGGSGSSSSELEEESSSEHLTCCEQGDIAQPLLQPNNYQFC

ABCG2 = biological target: T2, ABCG2 (Homo sapiens, UniProt Q9UNQ0); assay: Bidirectional drug transport assay; assay type: in vitro ADME; conditions: dog, pH 7.4, MDCKII–ABCG2, mean of three experiments
T2 construct: expressed in transfected cells; host or cells: MDCKII-ABCG2
T2 sequence (Q9UNQ0 whole entry, species assumed): as the sequence (Q9UNQ0 whole entry, species assumed) above

[1] = biological target: ABL1(E317I)-nonphosphorylated (Homo sapiens, UniProt P00519, F317I); assay: biochemical; conditions: read-out: Percent control
[2] = biological target: ABL1(Q252H)-nonphosphorylated (Homo sapiens, UniProt P00519, Q252H); assay: biochemical; conditions: read-out: Percent control
[3] = biological target: ABL1(Q252H)-phosphorylated (Homo sapiens, UniProt P00519, Q252H); assay: biochemical; conditions: read-out: Percent control
ABL1-phosphorylated = ABL1-phosphorylated (Homo sapiens, UniProt P00519); assay: biochemical; conditions: read-out: Percent control
FGFR3 = FGFR3 (Homo sapiens, UniProt P22607); assay: biochemical; conditions: read-out: Percent control
FLT3(R834Q) = biological target: T3, FLT3(R834Q) (Homo sapiens, UniProt P36888, R834Q); assay: biochemical; conditions: read-out: Percent control
T3 sequence (P36888 27-993 R834Q): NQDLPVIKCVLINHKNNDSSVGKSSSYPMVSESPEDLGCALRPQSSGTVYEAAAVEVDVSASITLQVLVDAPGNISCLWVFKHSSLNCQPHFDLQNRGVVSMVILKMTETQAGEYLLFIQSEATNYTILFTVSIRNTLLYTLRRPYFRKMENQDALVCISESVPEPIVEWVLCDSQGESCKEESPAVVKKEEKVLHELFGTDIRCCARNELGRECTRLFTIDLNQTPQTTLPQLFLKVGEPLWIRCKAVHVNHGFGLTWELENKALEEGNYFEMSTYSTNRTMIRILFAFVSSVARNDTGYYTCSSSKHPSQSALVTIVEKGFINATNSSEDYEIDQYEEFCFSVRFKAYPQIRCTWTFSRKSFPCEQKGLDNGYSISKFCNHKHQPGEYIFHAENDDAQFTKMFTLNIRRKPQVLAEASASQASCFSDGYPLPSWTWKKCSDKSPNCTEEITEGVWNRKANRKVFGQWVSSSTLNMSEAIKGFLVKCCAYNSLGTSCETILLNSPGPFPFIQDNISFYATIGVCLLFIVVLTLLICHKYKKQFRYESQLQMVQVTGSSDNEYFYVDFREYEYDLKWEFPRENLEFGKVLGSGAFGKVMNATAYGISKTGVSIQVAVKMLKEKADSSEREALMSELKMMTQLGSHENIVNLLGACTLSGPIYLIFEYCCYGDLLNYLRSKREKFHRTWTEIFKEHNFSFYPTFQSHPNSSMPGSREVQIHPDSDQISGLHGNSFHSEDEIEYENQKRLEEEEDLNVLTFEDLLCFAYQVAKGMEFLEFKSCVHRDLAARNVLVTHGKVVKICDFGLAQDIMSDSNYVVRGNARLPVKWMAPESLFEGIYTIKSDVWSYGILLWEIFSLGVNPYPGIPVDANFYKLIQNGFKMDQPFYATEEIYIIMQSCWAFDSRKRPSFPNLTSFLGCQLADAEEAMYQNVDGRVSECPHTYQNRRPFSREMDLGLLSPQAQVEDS

RET(M918T) = RET(M918T) (Homo sapiens, UniProt P07949, M918T); assay: biochemical; conditions: read-out: Percent control
Sequence of RET(M918T) (P07949 29-1114 M918T): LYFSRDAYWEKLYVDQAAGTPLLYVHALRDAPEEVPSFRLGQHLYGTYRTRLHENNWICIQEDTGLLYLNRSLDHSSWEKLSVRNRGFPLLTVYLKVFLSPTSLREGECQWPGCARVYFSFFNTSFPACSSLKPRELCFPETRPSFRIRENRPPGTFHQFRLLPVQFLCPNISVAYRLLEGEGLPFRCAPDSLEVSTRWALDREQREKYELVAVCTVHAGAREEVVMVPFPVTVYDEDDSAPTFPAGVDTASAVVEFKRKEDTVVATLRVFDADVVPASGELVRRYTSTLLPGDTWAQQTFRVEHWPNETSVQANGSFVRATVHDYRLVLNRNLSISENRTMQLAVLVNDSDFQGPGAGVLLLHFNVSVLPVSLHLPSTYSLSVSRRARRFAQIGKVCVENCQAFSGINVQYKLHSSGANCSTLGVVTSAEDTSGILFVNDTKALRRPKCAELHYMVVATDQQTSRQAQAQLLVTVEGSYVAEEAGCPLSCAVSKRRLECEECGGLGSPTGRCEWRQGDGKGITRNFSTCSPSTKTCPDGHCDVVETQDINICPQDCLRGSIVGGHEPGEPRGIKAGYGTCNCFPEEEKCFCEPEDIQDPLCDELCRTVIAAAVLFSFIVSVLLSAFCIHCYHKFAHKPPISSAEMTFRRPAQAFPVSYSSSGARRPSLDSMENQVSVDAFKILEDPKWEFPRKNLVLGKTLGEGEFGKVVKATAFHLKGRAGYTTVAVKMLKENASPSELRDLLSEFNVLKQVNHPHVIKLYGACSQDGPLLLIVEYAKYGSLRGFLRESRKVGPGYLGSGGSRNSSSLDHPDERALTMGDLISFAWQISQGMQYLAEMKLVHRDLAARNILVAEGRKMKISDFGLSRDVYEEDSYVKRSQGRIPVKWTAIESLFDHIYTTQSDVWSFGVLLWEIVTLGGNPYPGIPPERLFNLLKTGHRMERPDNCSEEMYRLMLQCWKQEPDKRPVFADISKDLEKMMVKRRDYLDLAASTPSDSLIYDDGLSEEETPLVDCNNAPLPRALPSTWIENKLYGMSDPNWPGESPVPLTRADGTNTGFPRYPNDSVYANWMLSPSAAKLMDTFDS

EGFR(T790M) = EGFR(T790M) (Homo sapiens, UniProt P00533, T790M); assay: biochemical; conditions: read-out: Percent control
Sequence of EGFR(T790M) (P00533 25-1210 T790M): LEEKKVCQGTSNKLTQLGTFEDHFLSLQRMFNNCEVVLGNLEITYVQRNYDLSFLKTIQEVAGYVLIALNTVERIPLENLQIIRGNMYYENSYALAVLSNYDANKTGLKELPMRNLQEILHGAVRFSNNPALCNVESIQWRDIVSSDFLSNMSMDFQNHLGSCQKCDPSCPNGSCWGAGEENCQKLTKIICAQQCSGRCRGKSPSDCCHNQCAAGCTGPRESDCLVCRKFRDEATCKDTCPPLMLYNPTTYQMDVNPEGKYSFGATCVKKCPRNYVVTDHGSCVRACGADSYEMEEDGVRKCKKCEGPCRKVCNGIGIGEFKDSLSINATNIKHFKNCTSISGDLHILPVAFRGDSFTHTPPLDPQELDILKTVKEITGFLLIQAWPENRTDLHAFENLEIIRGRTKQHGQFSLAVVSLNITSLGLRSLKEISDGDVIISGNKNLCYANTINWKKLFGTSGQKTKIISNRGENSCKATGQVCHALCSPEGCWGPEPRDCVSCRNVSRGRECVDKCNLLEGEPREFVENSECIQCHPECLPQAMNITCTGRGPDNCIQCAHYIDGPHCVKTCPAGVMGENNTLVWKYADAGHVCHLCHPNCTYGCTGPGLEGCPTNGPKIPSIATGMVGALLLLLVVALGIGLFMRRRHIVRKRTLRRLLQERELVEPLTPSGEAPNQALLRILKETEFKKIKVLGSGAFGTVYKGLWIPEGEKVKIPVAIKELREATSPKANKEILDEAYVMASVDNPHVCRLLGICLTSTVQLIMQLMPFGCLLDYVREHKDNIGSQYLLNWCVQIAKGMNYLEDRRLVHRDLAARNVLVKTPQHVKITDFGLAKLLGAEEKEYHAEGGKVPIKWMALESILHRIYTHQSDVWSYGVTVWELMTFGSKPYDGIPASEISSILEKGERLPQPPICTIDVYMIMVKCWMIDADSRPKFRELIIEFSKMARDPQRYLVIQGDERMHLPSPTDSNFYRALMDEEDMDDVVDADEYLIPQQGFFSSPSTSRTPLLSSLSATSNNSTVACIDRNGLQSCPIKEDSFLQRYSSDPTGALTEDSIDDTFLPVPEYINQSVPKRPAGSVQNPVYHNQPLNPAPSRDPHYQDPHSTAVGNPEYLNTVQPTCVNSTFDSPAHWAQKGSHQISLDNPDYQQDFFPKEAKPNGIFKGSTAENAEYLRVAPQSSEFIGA

HCC827 = assay: Anticancer activity (cytotoxicity) in NSCLC cell line; assay type: cell-based; conditions: Homo sapiens, HCC827, EGFR ΔE746-A750 (sensitizing)
ABL2 = ABL2 (Homo sapiens, UniProt P42684); assay: biochemical; conditions: read-out: Percent control
Sequence of ABL2 (P42684 whole entry): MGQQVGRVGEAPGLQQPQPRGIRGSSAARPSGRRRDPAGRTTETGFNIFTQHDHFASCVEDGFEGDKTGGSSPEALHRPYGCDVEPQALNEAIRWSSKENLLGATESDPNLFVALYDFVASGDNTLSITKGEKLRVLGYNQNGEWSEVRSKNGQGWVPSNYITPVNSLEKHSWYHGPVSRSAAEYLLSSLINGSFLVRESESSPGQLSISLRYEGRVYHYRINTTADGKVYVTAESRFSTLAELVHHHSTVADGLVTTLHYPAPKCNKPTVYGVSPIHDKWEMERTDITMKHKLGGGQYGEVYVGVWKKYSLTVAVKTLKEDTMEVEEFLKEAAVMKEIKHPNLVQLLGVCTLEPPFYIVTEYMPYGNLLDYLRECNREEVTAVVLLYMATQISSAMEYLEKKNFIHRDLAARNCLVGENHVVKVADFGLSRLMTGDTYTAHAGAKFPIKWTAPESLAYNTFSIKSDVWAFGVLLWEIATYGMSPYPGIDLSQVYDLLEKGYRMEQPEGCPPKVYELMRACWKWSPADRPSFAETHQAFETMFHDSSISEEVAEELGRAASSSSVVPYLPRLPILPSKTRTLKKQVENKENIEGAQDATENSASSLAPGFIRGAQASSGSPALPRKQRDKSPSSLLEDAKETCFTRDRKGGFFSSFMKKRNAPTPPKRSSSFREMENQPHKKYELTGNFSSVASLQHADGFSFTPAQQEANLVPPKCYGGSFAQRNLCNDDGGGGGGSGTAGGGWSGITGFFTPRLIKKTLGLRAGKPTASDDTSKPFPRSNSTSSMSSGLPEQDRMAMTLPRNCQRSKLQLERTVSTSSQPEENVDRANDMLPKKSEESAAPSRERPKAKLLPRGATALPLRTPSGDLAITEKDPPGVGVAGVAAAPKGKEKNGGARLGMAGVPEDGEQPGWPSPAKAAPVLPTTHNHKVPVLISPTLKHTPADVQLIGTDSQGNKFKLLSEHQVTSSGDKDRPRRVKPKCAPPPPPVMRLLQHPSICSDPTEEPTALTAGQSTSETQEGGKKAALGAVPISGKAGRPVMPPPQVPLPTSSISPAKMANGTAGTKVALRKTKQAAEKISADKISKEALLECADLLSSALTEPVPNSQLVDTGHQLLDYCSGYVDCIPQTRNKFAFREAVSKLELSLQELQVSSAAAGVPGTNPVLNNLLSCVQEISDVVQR

FLT3(D835Y) = biological target: T4, FLT3(D835Y) (Homo sapiens, UniProt P36888, D835Y); assay: biochemical; conditions: read-out: Percent control
T4 sequence (P36888 27-993 D835Y): T3 sequence (P36888 27-993 R834Q) with Q808R, D809Y

**Q.** `C#Cc1cccc(Nc2c3cc(OCCOC)c(OCCOC)cc3nc[n+]2[Pt@SP2-2]([NH3+])([NH3+])[Cl])c1` [2a, cisplatin-erlotinib] was tested. Which “A to B transport (apparent permeability)” value (ABCG2 (MDCKII–ABCG2)) did it give?
**A.** 7.21 × 10^−6

**Q.** And the “B to A transport (apparent permeability)” value (ABCG2 (MDCKII–ABCG2))?
**A.** 7.88 × 10^−6

**Q.** What about the Percent control (ABL1-nonphosphorylated) of the same molecule?
**A.** 25%

**Q.** And the Percent control (CSF1R)?
**A.** 91%

**Q.** Which Papp A→B at 120 min, 10 μM (ABCG2; read-out: A to B transport (apparent permeability)) does the source give for `C#Cc1cccc(Nc2ncnc3cc(OCCOC)c(OCCOC)cc23)c1` [Erlotinib] here?
**A.** 14.9 ×10⁻⁶ cm/s

**Q.** And the Papp B→A at 120 min, 10 μM (ABCG2; read-out: B to A transport (apparent permeability))?
**A.** 45.4 ×10⁻⁶ cm/s

**Q.** And the remaining activity at 10 µM [1]?
**A.** 45.1%

**Q.** And the remaining activity at 10 µM [2]?
**A.** 2.2%

**Q.** What about the remaining activity at 10 µM [3] of the same molecule?
**A.** 0.6%

**Q.** And the remaining activity at 10 µM (ABL1-phosphorylated)?
**A.** 0.8%

**Q.** And the remaining activity at 10 µM (FGFR3)?
**A.** 100%

**Q.** And the remaining activity at 10 µM (FLT3(R834Q))?
**A.** 100%

**Q.** And the remaining activity at 10 µM (RET(M918T))?
**A.** 3.2%

**Q.** `Cc1ccc(NC(=O)c2ccc(CN3CCN(C)CC3)cc2)cc1Nc1nccc(-c2cccnc2)n1` [Imatinib, reference compound] was tested. Which remaining activity at 10 µM (EGFR(T790M)) did it give?
**A.** 100%

**Q.** How did the IC50 (HCC827) turn out when `COc1cc2c(Nc3ccc(Br)cc3F)ncnc2cc1OCC1CCN(C)CC1` [Vandetanib, reference compound] was run?
**A.** 11 ± 2 nM

**Q.** What about the remaining activity at 10 µM (ABL2) of the same molecule?
**A.** 0.7%

**Q.** And the remaining activity at 10 µM (FLT3(D835Y))?
**A.** 7.7%
